# Measurements published in article PMC7006939 (ACS pharmacology & translational science, 2019).
# Like-named read-outs stand apart in the source and are kept apart here.
# Experiments:
# pirin [1] = molecular target: T1, pirin (Homo sapiens, UniProt O00625); assay: ITC; assay type: binding
# T1 sequence (O00625 1-290): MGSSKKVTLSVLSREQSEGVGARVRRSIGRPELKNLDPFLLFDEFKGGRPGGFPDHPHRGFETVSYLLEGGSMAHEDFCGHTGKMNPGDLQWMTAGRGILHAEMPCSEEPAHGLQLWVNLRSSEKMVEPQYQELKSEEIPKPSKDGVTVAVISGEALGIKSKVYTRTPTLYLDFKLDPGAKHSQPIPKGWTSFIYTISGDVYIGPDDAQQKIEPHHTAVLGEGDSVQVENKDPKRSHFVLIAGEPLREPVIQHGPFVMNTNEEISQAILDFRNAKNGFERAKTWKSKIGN
# pirin [2] = molecular target: T1, pirin; assay: ITC; assay type: binding; remark: listed apart in the source
Kd (pirin [1]) [µM],Kd (pirin [2]) [µM],SMILES
8.5,–,O=C(Nc1ccc(Cl)cc1)C1CN(C(=O)c2cc(F)cc(-c3ccncc3)c2)CC(F)(F)C1 (centres unmarked) [CCG-257081]
–,4.3,O=C(Nc1ccc(Cl)cc1)C1CN(C(=O)c2cccc(-c3ccco3)c2)CC(F)(F)C1 (racemic) [CCG-222740]
